According to PubChem BioAssay (NCI):
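Interpolation was linear, between the two tested concentrations surrounding the appropriate level; five concentrations were tested over 48 hours in 96-well plates. Here, GI50 denotes the concentration required for 50% inhibition of growth. TGI: concentration producing complete growth inhibition.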

Columns and labels:
Assay in all cases: NCI-60 cell line screen, 48 h
786-0 renal = system: 786-0 renal
A498 renal = system: A498 renal
A549 NSCLC = system: A549 NSCLC
ACHN renal = system: ACHN renal
BT-549 breast = system: BT-549 breast
CAKI-1 renal = system: CAKI-1 renal
CCRF-CEM leukemia = system: CCRF-CEM leukemia
COLO 205 colon = system: COLO 205 colon
DU-145 prostate = system: DU-145 prostate
HCC-2998 colon = system: HCC-2998 colon
HCT-116 colon = system: HCT-116 colon
HCT-15 colon = system: HCT-15 colon
HL-60(TB) leukemia = system: HL-60(TB) leukemia
HOP-62 NSCLC = system: HOP-62 NSCLC
HOP-92 NSCLC = system: HOP-92 NSCLC
HS 578T breast = system: HS 578T breast
HT29 colon = system: HT29 colon
IGROV1 ovarian = system: IGROV1 ovarian
K-562 leukemia = system: K-562 leukemia
KM12 colon = system: KM12 colon
LOX IMVI melanoma = system: LOX IMVI melanoma
M14 melanoma = system: M14 melanoma
MALME-3M melanoma = system: MALME-3M melanoma
MCF7 breast = system: MCF7 breast
MDA-MB-231 breast = system: MDA-MB-231 breast
MDA-MB-435 = system: MDA-MB-435
MOLT-4 leukemia = system: MOLT-4 leukemia
NCI-H226 lung = system: NCI-H226 lung
NCI-H23 lung = system: NCI-H23 lung
NCI-H460 lung = system: NCI-H460 lung
NCI-H522 lung = system: NCI-H522 lung
NCI/ADR-RES ovarian = system: NCI/ADR-RES ovarian
OVCAR-3 ovarian = system: OVCAR-3 ovarian
OVCAR-4 ovarian = system: OVCAR-4 ovarian
OVCAR-5 ovarian = system: OVCAR-5 ovarian
OVCAR-8 ovarian = system: OVCAR-8 ovarian
PC-3 prostate = system: PC-3 prostate
RPMI-8226 leukemia = system: RPMI-8226 leukemia
SF-268 CNS = system: SF-268 CNS
SF-295 CNS = system: SF-295 CNS
SF-539 CNS = system: SF-539 CNS
SK-MEL-2 melanoma = system: SK-MEL-2 melanoma
SK-MEL-28 melanoma = system: SK-MEL-28 melanoma
SK-MEL-5 melanoma = system: SK-MEL-5 melanoma
SK-OV-3 ovarian = system: SK-OV-3 ovarian
SN12C renal = system: SN12C renal
SNB-19 CNS = system: SNB-19 CNS
SNB-75 CNS = system: SNB-75 CNS
SR leukemia = system: SR leukemia
SW-620 colon = system: SW-620 colon
T-47D breast = system: T-47D breast
TK-10 renal = system: TK-10 renal
U251 CNS = system: U251 CNS
UACC-257 melanoma = system: UACC-257 melanoma
UACC-62 melanoma = system: UACC-62 melanoma
UO-31 renal = system: UO-31 renal
EKVX NSCLC = system: EKVX NSCLC
RXF 393 renal = system: RXF 393 renal

Structure (SMILES): CO[C@H]1/C=C/O[C@@]2(C)Oc3c(C)c(O)c4c(c3C2=O)C(=O)C(/C=N/N(c2ccccc2)c2ccccc2)=C(NC(=O)/C(C)=C\C=C\[C@H](C)[C@H](O)[C@@H](C)[C@@H](O)[C@@H](C)[C@H](OC(C)=O)[C@@H]1C)C4=O
- GI50 (786-0 renal): 1.83 µM
- TGI (786-0 renal): 3.44 µM
- GI50 (A498 renal): 1.43 µM
- TGI (A498 renal): 2.84 µM
- GI50 (A549 NSCLC): 1.69 µM
- TGI (A549 NSCLC): 3.29 µM
- GI50 (ACHN renal): 1.74 µM
- TGI (ACHN renal): 3.28 µM
- GI50 (BT-549 breast): 1.61 µM
- TGI (BT-549 breast): 3.06 µM
- GI50 (CAKI-1 renal): 1.72 µM
- TGI (CAKI-1 renal): 3.38 µM
- GI50 (CCRF-CEM leukemia): 1.83 µM
- TGI (CCRF-CEM leukemia): 4.84 µM
- GI50 (COLO 205 colon): 1.75 µM
- TGI (COLO 205 colon): 3.46 µM
- GI50 (DU-145 prostate): 1.93 µM
- TGI (DU-145 prostate): 3.51 µM
- GI50 (HCC-2998 colon): 2.07 µM
- TGI (HCC-2998 colon): 4.08 µM
- GI50 (HCT-116 colon): 1.47 µM
- TGI (HCT-116 colon): 2.96 µM
- GI50 (HCT-15 colon): 1.63 µM
- TGI (HCT-15 colon): 3.4 µM
- GI50 (HL-60(TB) leukemia): 2.17 µM
- TGI (HL-60(TB) leukemia): 4.7 µM
- GI50 (HOP-62 NSCLC): 1.71 µM
- TGI (HOP-62 NSCLC): 3.17 µM
- GI50 (HOP-92 NSCLC): 1.88 µM
- TGI (HOP-92 NSCLC): 3.52 µM
- GI50 (HS 578T breast): 2.04 µM
- TGI (HS 578T breast): 5.39 µM
- GI50 (HT29 colon): 1.93 µM
- TGI (HT29 colon): 3.84 µM
- GI50 (IGROV1 ovarian): 2.13 µM
- TGI (IGROV1 ovarian): 4.23 µM
- GI50 (K-562 leukemia): 2.69 µM
- TGI (K-562 leukemia): 9.36 µM
- GI50 (KM12 colon): 1.75 µM
- TGI (KM12 colon): 3.24 µM
- GI50 (LOX IMVI melanoma): 1.95 µM
- TGI (LOX IMVI melanoma): 3.79 µM
- GI50 (M14 melanoma): 1.79 µM
- TGI (M14 melanoma): 3.49 µM
- GI50 (MALME-3M melanoma): 1.89 µM
- TGI (MALME-3M melanoma): 3.59 µM
- GI50 (MCF7 breast): 1.95 µM
- TGI (MCF7 breast): 4.23 µM
- GI50 (MDA-MB-231 breast): 1.7 µM
- TGI (MDA-MB-231 breast): 3.35 µM
- GI50 (MDA-MB-435): 1.68 µM
- TGI (MDA-MB-435): 3.09 µM
- GI50 (MOLT-4 leukemia): 1.85 µM
- TGI (MOLT-4 leukemia): 6.07 µM
- GI50 (NCI-H226 lung): 1.97 µM
- TGI (NCI-H226 lung): 3.98 µM
- GI50 (NCI-H23 lung): 2.44 µM
- TGI (NCI-H23 lung): 5.1 µM
- GI50 (NCI-H460 lung): 1.77 µM
- TGI (NCI-H460 lung): 3.44 µM
- GI50 (NCI-H522 lung): 1.72 µM
- TGI (NCI-H522 lung): 3.42 µM
- GI50 (NCI/ADR-RES ovarian): 2.4 µM
- TGI (NCI/ADR-RES ovarian): 5.31 µM
- GI50 (OVCAR-3 ovarian): 1.84 µM
- TGI (OVCAR-3 ovarian): 3.34 µM
- GI50 (OVCAR-4 ovarian): 1.65 µM
- TGI (OVCAR-4 ovarian): 3.15 µM
- GI50 (OVCAR-5 ovarian): 1.83 µM
- TGI (OVCAR-5 ovarian): 3.72 µM
- GI50 (OVCAR-8 ovarian): 1.99 µM
- TGI (OVCAR-8 ovarian): 4.21 µM
- GI50 (PC-3 prostate): 1.32 µM
- TGI (PC-3 prostate): 2.82 µM
- GI50 (RPMI-8226 leukemia): 1.43 µM
- TGI (RPMI-8226 leukemia): 4.31 µM
- GI50 (SF-268 CNS): 1.79 µM
- TGI (SF-268 CNS): 3.37 µM
- GI50 (SF-295 CNS): 1.59 µM
- TGI (SF-295 CNS): 3 µM
- GI50 (SF-539 CNS): 1.8 µM
- TGI (SF-539 CNS): 3.56 µM
- GI50 (SK-MEL-2 melanoma): 1.86 µM
- TGI (SK-MEL-2 melanoma): 3.6 µM
- GI50 (SK-MEL-28 melanoma): 1.71 µM
- TGI (SK-MEL-28 melanoma): 3.36 µM
- GI50 (SK-MEL-5 melanoma): 1.64 µM
- TGI (SK-MEL-5 melanoma): 3.02 µM
- GI50 (SK-OV-3 ovarian): 1.81 µM
- TGI (SK-OV-3 ovarian): 3.28 µM
- GI50 (SN12C renal): 1.82 µM
- TGI (SN12C renal): 3.33 µM
- GI50 (SNB-19 CNS): 1.71 µM
- TGI (SNB-19 CNS): 3.27 µM
- GI50 (SNB-75 CNS): 1.38 µM
- TGI (SNB-75 CNS): 2.72 µM
- GI50 (SR leukemia): 2.43 µM
- TGI (SR leukemia): 5.77 µM
- GI50 (SW-620 colon): 1.83 µM
- TGI (SW-620 colon): 3.61 µM
- GI50 (T-47D breast): 1.84 µM
- TGI (T-47D breast): 3.85 µM
- GI50 (TK-10 renal): 1.87 µM
- TGI (TK-10 renal): 3.55 µM
- GI50 (U251 CNS): 1.86 µM
- TGI (U251 CNS): 3.4 µM
- GI50 (UACC-257 melanoma): 1.84 µM
- TGI (UACC-257 melanoma): 3.9 µM
- GI50 (UACC-62 melanoma): 1.51 µM
- TGI (UACC-62 melanoma): 2.92 µM
- GI50 (UO-31 renal): 1.65 µM
- TGI (UO-31 renal): 3.21 µM

Structure (SMILES): COc1ccc2c(C)cc(N/N=C/c3ccc(OC)c4ccccc34)nc2c1
- TGI (786-0 renal): 26.4 µM
- TGI (A549 NSCLC): 34.8 µM
- TGI (ACHN renal): 15.8 µM
- TGI (BT-549 breast): 46.2 µM
- TGI (CAKI-1 renal): 26.9 µM
- TGI (CCRF-CEM leukemia): 7.47 µM
- TGI (COLO 205 colon): 42 µM
- TGI (DU-145 prostate): 16.4 µM
- TGI (EKVX NSCLC): 35.1 µM
- TGI (HCT-116 colon): 18.1 µM
- TGI (HCT-15 colon): 23.4 µM
- TGI (HL-60(TB) leukemia): 49.3 µM
- TGI (HOP-62 NSCLC): 34.4 µM
- TGI (HOP-92 NSCLC): 25.4 µM
- TGI (HS 578T breast): 32.8 µM
- TGI (HT29 colon): 32.7 µM
- TGI (IGROV1 ovarian): 29.3 µM
- TGI (K-562 leukemia): 32.3 µM
- TGI (KM12 colon): 29.6 µM
- TGI (LOX IMVI melanoma): 12.3 µM
- TGI (M14 melanoma): 31.9 µM
- TGI (MALME-3M melanoma): 36.3 µM
- TGI (MCF7 breast): 44.6 µM
- TGI (MDA-MB-231 breast): 17.4 µM
- TGI (MDA-MB-435): 24.1 µM
- TGI (MOLT-4 leukemia): 52.9 µM
- TGI (NCI-H226 lung): 29.6 µM
- TGI (NCI-H23 lung): 32.8 µM
- TGI (NCI-H460 lung): 41.1 µM
- TGI (NCI-H522 lung): 26.7 µM
- TGI (NCI/ADR-RES ovarian): 32.7 µM
- TGI (OVCAR-3 ovarian): 9.02 µM
- TGI (OVCAR-4 ovarian): 45.1 µM
- TGI (OVCAR-5 ovarian): 29.1 µM
- TGI (OVCAR-8 ovarian): 39.6 µM
- TGI (PC-3 prostate): 34.1 µM
- TGI (RPMI-8226 leukemia): 8.64 µM
- TGI (RXF 393 renal): 39.8 µM
- TGI (SF-268 CNS): 32.6 µM
- TGI (SF-295 CNS): 32 µM
- TGI (SF-539 CNS): 30.6 µM
- TGI (SK-MEL-2 melanoma): 37.2 µM
- TGI (SK-MEL-28 melanoma): 31.6 µM
- TGI (SK-MEL-5 melanoma): 30.3 µM
- TGI (SK-OV-3 ovarian): 33.8 µM
- TGI (SN12C renal): 5.52 µM
- TGI (SNB-19 CNS): 41.9 µM
- TGI (SNB-75 CNS): 42.2 µM
- TGI (SR leukemia): 22.3 µM
- TGI (SW-620 colon): 22.2 µM
- TGI (T-47D breast): 24.1 µM
- TGI (TK-10 renal): 31.8 µM
- TGI (U251 CNS): 13.2 µM
- TGI (UACC-257 melanoma): 36.9 µM
- TGI (UACC-62 melanoma): 28.3 µM
- TGI (UO-31 renal): 25.6 µM
